According to patent US7745402B2, “Method of treating pancreatitis” (Lundbeck Inc., priority 2005, dated 2010):

Experiments:
peritoneal cells = assay: Effect of hemin on peritoneal cell number (cell counting, flow cytometry); type: in vivo; conditions: mice injected during a 7-day period, 3 per group, p 0.06 vs vehicle
Experimental: The effect of hemin or vehicle on peritoneal cell number was assayed. Mice (3 per group) were injected with vehicle or hemin during a 7-day period. Peritoneal cells were then isolated followed by counting. Cell viability was greater than 98% using trypan blue exclusion. The number of cells that were double positive for Mac-1^+ and F4/80^+ was then determined using flow cytometry. P-values compared the hemin treated versus the vehicle treated groups.

HO-2 = HO-2 immunoblot of mouse tissue homogenates after hemin; type: in vivo, mice; conditions: any of the tissues; hemin 3× during 7 d
MCP-1 = assay: Real-time RT-PCR of pancreatic chemokine mRNA after hemin; type: in vivo, mice; conditions: pancreas 24 h after one intraperitoneal injection
Experimental: (§1) FIG. 3: Hemin increases HO-1^+ pancreatic macrophages in association with MCP-1 and MIP-1α induction. (A) Pancreas from CDD-fed mice was triple-stained using antibodies to HO-1 (a), the macrophage marker F4/80 (b), and the granulocyte marker Gr-1 (c). Scale bar in panel d=[…]. (B) Mice were treated intraperitoneally with hemin (H) or vehicle (V) once (H×1) or 3×(H×3, V×3) during a one week period, followed by feeding with CDD or regular chow for 3 d. Pancreata were collected followed by staining and counting F4/80^+ macrophages in 10 randomly selected high power fields (HPF). The mean±SD (3 mice/group) and p-value for the indicated comparisons are shown. (C) Hemin (H) or vehicle (V) were injected intraperitoneally once followed by harvesting of pancreata after 24 h. A non-injected control “C” group was also included. mRNA levels were then estimated from pancreata of 3 mice/group as a ratio of the indicated chemokine to β-actin (mean±SD).
(§2) Real-time reverse transcription (RT)-PCR. Total RNA was isolated from pancreatic tissue using a commercial kit (TEL-TEST; Friendswood, Tex.). First strand cDNA was synthesized using oligo-dT primers and SuperScript II reverse transcriptase (Invitrogen; Carlsbad, Calif.). Real-time quantitative PCR was performed with an ABI Prism 7900 Sequence Detection System (PE Biosystems; Foster City, Calif.) and established primers for MCP-1, MIP-1α, MIP-2, RANTES, and β-actin. Zhong, B., et al., J. Cell Sci. 117:1709-1719; Zhang, Y., McCormick, L. L., Desai, S. R., Wu, C., and Gilliam, A. C. 2002. Murine sclerodermatous graft-versus-host disease, a model for human scleroderma: cutaneous cytokines, chemokines, and immune cell activation. J. Immunol. 168:3088-3098; Walzog, B., Weinmann, P., Jeblonski, F., Scharffetter-Kochanek, K., Bommert, K., and Gaehtgens, P. 1999. A role for beta(2) integrins (CD11/CD18) in the regulation of cytokine20 gene expression of polymorphonuclear neutrophils during the inflammatory response. FASEB J. 13:1855-1865. Primers to β-actin were used as an internal control reference, and the amount of specific cytokine relative to actin transcript was determined and reported as mean±SD.

MIP-1α = assay: as above; type: in vivo, mice; conditions: pancreas 24 h after one intraperitoneal injection
Experimental: as §1, §2

MIP-2 = assay: as above; type: in vivo, mice; conditions: pancreas 24 h after one intraperitoneal injection
Experimental: as §1, §2

RANTES = assay: as above; type: in vivo, mice; conditions: pancreas 24 h after one intraperitoneal injection
Experimental: as §1, §2

macrophages = assay: In vivo macrophage homing to the pancreas, bioluminescence imaging; set-up: species or system FVB/n mice; conditions: single dose of hemin 24 h prior to cell transfer
Experimental: FIG. 4: Effect of hemin on in vivo macrophage homing to the pancreas using bioluminescence imaging. (A) Experimental scheme of cell transfer. Hemin (H) was injected 3× intraperitoneally into luciferase-overexpressing (+/+) mice, then peritoneal cells were harvested and macrophages were selected using anti-Mac-1 magnetic beads. Luciferase/Mac-1 double-positive cells were transferred intraperitoneally to wild-type (luciferase −/−) mice that were preinjected with one dose of H or vehicle (V) 24 h prior to the transfer. This hemin injection is necessary to induce pancreatic chemokines (FIG. 3C). (B) Live images of recipient intact anesthetized mice were taken 5 min (a) or 24 h (b) after cell transfer. Livers and pancreata were removed 24 h after the transfer followed by imaging (c). The signal intensity scale bar is shown below each image. (C) A duplicate of the pancreata shown in image c of panel B (from recipients receiving donor cells from H-injected animals) was double-stained with antibodies to luciferase and F4/80. […] Bar in panel c=50 μm.
The present invention offers a novel approach of immune-mediated therapy via the unanticipated effect of hemin on leukocyte recruitment to the pancreas. Based on a mouse animal model of pancreatitis, the therapeutic approach of the present invention has applicability to other mammalian, particularly human, pancreatitis. […]

Substance: Hemin
- Total cell number (peritoneal cells): 7.3 ± 2.1 × 10^6
- HO-2 levels (HO-2): did not change
- MCP-1 mRNA (ratio to β-actin) (MCP-1): induction
- MIP-1α mRNA (ratio to β-actin) (MIP-1α): induction
- change in MIP-2 mRNA level (MIP-2): not significant
- change in RANTES mRNA level (RANTES): not significant
- macrophage recruitment to the pancreas after hemin priming of recipients (macrophages): stimulates pancreatic chemokine production and triggers migration of macrophages to the pancreas
